# Test results reported in patent US9745266B2 (THE REGENTS OF THE UNIVERSITY OF COLORADO, A BODY CORPORATE, priority 2013, dated 2017).
# Read-outs that look alike come from different tables or passages of the source.
# What was measured:
# MRSA ATCC BAA-44 [1] = assay: MIC in the presence of 20 μM Of1 / alkaloid; format: cell-based, S. aureus; conditions: for fold of potentiation: MIC / MIC (+20 μM Of1); for MIC (+Of1): in the presence of 20 μM Of1
# Description: (§1) Indoline alkaloid compounds were then screened for the ability to potentiate the activity of methicillin against MRSA. A multi-drug resistant MRSA strain (ATCC: BAA-44) was selected for the initial screening. […] To each well, 20 μM of each individual indoline alkaloid was added and the plates were incubated at 37° C. for 16 hrs.
# (§2) The MRSA strain ATCC BAA-44 and the methicillin-sensitive S. aureus (MSSA) strain ATCC 25923 were used to determine the MIC values of various antimicrobial compounds in the presence of 20 μM Of1. The experiment was conducted similarly to the CLSI MIC determination described previously; however, MHB was supplemented with 40 μM Of1 prior to set up and inoculation. The final concentration of Of1 after inoculation with BAA-44 was 20 μM.
# MRSA ATCC 33592 [2] = assay: MIC, broth microdilution; format: cell-based, S. aureus; conditions: Staphylococcus aureus
# Description: (§3) Activities listed in the table show the ability of the compounds of the invention to resensitize MRSA to a collection of β-lactam antibiotics. For these activity tests, AMOXICILLIN® was used in combination with clavulanic acid (a.k.a., AUGMENTIN®), CEFAZOLIN®, and MEROPENEM® (an ultra-broad-spectrum carbapenem). […] To assess activity of each analog as a resistance-modifying agent (RMA), a modified broth microdilution assay was used. Briefly, this involves incubating MRSA with 2-fold serial dilutions of a compound in the presence of each individual antibiotic at its Clinical Laboratory Standards Institutes (CLSI)-defined sensitive concentration. For AMOXICILLIN®/clavulanic acid, this concentration is 4/2 μg/ml (8-fold potentiation), for CEFAZOLIN®, 8 μg/ml (16-fold potentiation) and for MEROPENEM®, 4 μg/ml (4-fold potentiation). Following overnight incubation, plates were examined for bacterial growth, or lack thereof. Compounds were tested at concentrations ranging from 0.5-32 μg/ml. […] The half growth inhibitory concentration (GI50) of each analog was determined by fitting the data using KaleidaGraph (v4.1.1, Synergy Software). Compounds 1a-1 are synthesized as shown in Scheme 1 below.
# The minimal inhibitory concentrations (MICs) of active Of1 analogs were determined by the broth microdilution method detailed in the Clinical and Laboratory Standards Institute handbook. […]
# MRSA ATCC BAA-44 [3] = assay: MIC, CLSI broth microdilution; format: cell-based, S. aureus; conditions: MRSA ATCC BAA-44, compound alone
# MRSA ATCC 33592 [4] = assay: Minimum resensitizing concentration (MRC), modified broth microdilution; format: cell-based, S. aureus
# Description: as §3, with “For” for “Activities listed in the table show the ability of the compounds of the invention to resensitize MRSA to a collection of β-lactam antibiotics. For”, “Software).” for “Software). Compounds 1a-1 are synthesized as shown in Scheme 1 below.”
# (§4) A modified broth microdilution assay was employed by incubating MRSA (ATCC: BAA-44) with Of1 in 2-fold series dilution in the presence of individual antibiotics at the highest sensitive concentration at 37° C. overnight. […] The MRC values were also determined for another three MRSA strains. […] Furthermore, the mammalian toxicity of Of1 was evaluated using human liver hepatocellular carcinoma HepG2 cell line in CellTiter Glo™ mammalian viability assay (Promega).
# (§5) MRC screens were performed as follows: antibiotic MIC values where S. aureus is considered susceptible were determined from the CLSI handbook supplement. Analogs of Of1 were diluted to 5 mg/ml in DMSO. Antibiotic was prepared at twice the intended final concentration in Mueller Hinton Broth (MHB). For amoxicillin/clavulanic acid, the initial concentration was 8/4 μg/ml, for meropenem 8 μg/ml and for cefazolin 16 μg/ml. 50 μl of the antibiotic containing media was added to each well of 96 well plates and 100 μl was added to the top row. 1.28 μl of 5 mg/ml alkaloid solution was added to the top row of each plate to afford a concentration of 64 μg/ml in the top row of each plate and two fold serial dilutions were performed down the columns. Once the plates were prepared, a day culture of MRSA was diluted to OD600 0.002 and 50 μl was added to each well. The final concentration of MRSA was OD600 0.001, the final concentration of amoxicillin/clavulanic acid was 4/2 μg/ml, the final concentration of meropenem was 4 μg/ml the final concentration of cefazolin was 8 μg/ml, and the highest concentration of Of1 analog tested was 32 μg/ml. Plates were incubated overnight at 37° C. with shaking. The MRC value was determined as the concentration of Of1 analog in the presence of antibiotic at which there was no observable overnight growth.
# MRSA ATCC BAA-44 [5] = assay: as above; format: cell-based, S. aureus
# Description: as §3, with “For” for “Activities listed in the table show the ability of the compounds of the invention to resensitize MRSA to a collection of β-lactam antibiotics. For”, “Software).” for “Software). Compounds 1a-1 are synthesized as shown in Scheme 1 below.”
# as §4, §5
# HeLa cells = assay: Mammalian cytotoxicity, CellTiter-Glo viability assay; format: cell-based, human; conditions: 24 hours
# Description: To evaluate the cytotoxicity of Of1 in mammalian cells, a cell viability assay was carried out using CellTiter-Glo luminescent cell viability assay kit (Promega). Human cervixcal adenocarcinoma HeLa cells were seeded on white, cell-culture treated 96-well plates (Corning: 3917) with Dulbecco's modified Eagle's medium (DMEM) supplemented with 10% fetal calf serum (FCS), 1% penicillin/streptomycin, at the densities of 20,000 cells/well. The medium volume for each well was 100 μL. Cells were incubated at 37° C. in 5% CO2/95% air for 16 hours. The medium was removed from each well and replaced with 99 μL of warmed fresh medium. To each well, 1 μL of Of1 analog was added in DMSO to final concentrations of 0.5-32 μg/mL. Each series was performed in triplicate. After incubation at 37° C. for another 24 hours, the plates were equilibrated to room temperature for 30 minutes. 100 μL of CellTiter-Glo reagent (Promega) was added to each well and mixed for 2 minutes on an orbital shaker. The plate was incubated at room temperature for another 10 minutes to stabilize luminescent signal. The luminescence of each sample was recorded in an Envision Multilabel Plate Reader (Perkin Elmer).
# [6] = test system: methicillin-sensitive S. aureus (MSSA, ATCC: 25923); assay: MIC, CLSI broth microdilution; format: cell-based; conditions: Staphylococcus aureus; MSSA ATCC 25923, compound alone
# Description: as §1
# All antimicrobial compounds were purchased from Sigma-Aldrich. The growth media used for all MIC experiments was Mueller Hinton Broth (MHB) purchased from HIMEDIA through VWR (cat: 95039-356). The inoculum was prepared by diluting a bacterial day culture (OD600 0.15-0.4) to OD600 0.002. This dilution was further diluted two fold when added to 96 well microplates (USA Scientific CytoOne 96-well TC plate, cat: CC7682-7596) for a final inoculum concentration of OD600 0.001. All plates were incubated at 37° C. with shaking for 18 hours (overnight) before results were interpreted.
# [7] = test system: ATCC 700789 (vancomycin intermediate resistant S. aureus, VISA); assay: Minimum resensitizing concentration (MRC); format: cell-based
# Description: (§6) A modified broth microdilution assay was employed by incubating MRSA (ATCC: BAA-44) with Of1 in 2-fold series dilution in the presence of individual antibiotics at the highest sensitive concentration at 37° C. overnight. […] This is probably due to both the different sensitive concentration defined for each antibiotic and the different level of resistance of MRSA to various antibiotics. The MRC values were also determined for another three MRSA strains. The strain 33592 (ATCC) behaves similarly to BAA-44, and their MRCs for the three antibiotics tested are all 4 μg/mL. […] ATCC 700789 is particularly interesting, because it is also known as a vancomycin intermediate resistant S. aureus (VISA). […] Furthermore, the mammalian toxicity of Of1 was evaluated using human liver hepatocellular carcinoma HepG2 cell line in CellTiter Glo™ mammalian viability assay (Promega).
# MRSA ATCC BAA-1683 = assay: Minimum resensitizing concentration (MRC); format: cell-based, S. aureus
# Description: as §6
# [8] = test system: MSSA strain (ATCC: 25923); assay: Potentiation of β-lactam antibiotics by 20 μM Of1 in MSSA; format: cell-based, S. aureus; conditions: MSSA ATCC 25923
# Description: Taken together, it appears that Of1 is a resistance-modifying agent specifically for β-lactam antibiotics.
# as §2
# HepG2 cells = assay: Mammalian toxicity, CellTiter Glo viability assay; format: cell-based, human; conditions: at 4 μg/mL
# Description: as §6
# [9] = Mammalian toxicity, CellTiter Glo viability assay; format: cell-based, human; conditions: human, HepG2 cells
# Description: as §6
# [10] = Staphylococcus aureus, read-out: MIC
compound,measurement,setting,value
C[C@@H](O)[C@H]1C(=O)N2C(C(=O)O)=C(S[C@@H]3CN[C@H](C(=O)N(C)C)C3)[C@H](C)[C@H]12 [meropenem],fold of potentiation,MRSA ATCC BAA-44 [1]; MRSA ATCC BAA-44,16
same,MIC (+Of1),MRSA ATCC BAA-44 [1]; MRSA ATCC BAA-44,0.25 µg/mL
same,MIC,MRSA ATCC 33592 [2],16 µg/mL
same,MIC,MRSA ATCC BAA-44 [3]; [10],4 µg/mL
CN(C)[C@@H]1C(O)=C(C(N)=O)C(=O)[C@@]2(O)C(O)=C3C(=O)c4c(O)cccc4[C@@](C)(O)[C@H]3C[C@@H]12 [tetracycline],fold of potentiation,MRSA ATCC BAA-44 [1]; MRSA ATCC BAA-44,1
same,MIC (+Of1),MRSA ATCC BAA-44 [1]; MRSA ATCC BAA-44,64 µg/mL
same,MIC,MRSA ATCC BAA-44 [3]; [10],64 µg/mL
"2-(6-Bromo-4-methylidene-2,3,4,4a,9,9a-hexahydro-1H-carbazol-4a-yl)-N-(4-chlorobenzenesulfonyl)-S-(4-chlorophenyl)ethane-1-sulfonamido [Cpd 1h]",MRC meropenem,"MRSA ATCC 33592 [4]; MRSA ATCC 33592, meropenem at 4 μg/ml",>32 µg/mL
same,MRC amox/clav,"MRSA ATCC BAA-44 [5]; MRSA ATCC BAA-44, amoxicillin/clavulanic acid at 4/2 μg/ml",>32 µg/mL
same,MRC cefazolin,"MRSA ATCC BAA-44 [5]; MRSA ATCC BAA-44, cefazolin at 8 μg/ml",>32 µg/mL
same,MRC methicillin,"MRSA ATCC BAA-44 [5]; MRSA ATCC BAA-44, in presence of methicillin",>32 µg/mL
"C=C1CCC[C@@H]2Nc3c(F)cc(Br)cc3[C@]12CCN (stereo in doubt) [Cpd 11b, 2-(6-Bromo-8-fluoro-4-methylidene-2,3,4,4a,9,9a-hexahydro-1H-carbazol-4a-yl)ethan-1-amine]",GI50,HeLa cells,16.2 µg/mL
COc1cccc(OC)c1C(=O)N[C@@H]1C(=O)N2[C@@H]1SC(C)(C)[C@@H]2C(=O)O [methicillin],fold of potentiation,MRSA ATCC BAA-44 [1]; MRSA ATCC BAA-44,16
same,MIC (+Of1),MRSA ATCC BAA-44 [1]; MRSA ATCC BAA-44,8 µg/mL
same,MIC,MRSA ATCC BAA-44 [3]; [10],128 µg/mL
"C=C1CCC[C@@H]2Nc3ccc(Br)cc3[C@]12CCNS(=O)(=O)c1ccc(Cl)cc1 (stereo in doubt) [Of1, N-(2-(6-Bromo-4-methylene-2,3,4,4a,9,9a-hexahydro-1H-carbazol-4a-yl)ethyl)-4-chlorobenzenesulfonamide]",MIC,[6],> 128 µg/mL
same,GI50,HeLa cells,17.1 µg/mL
same,"MRC of Of1, oxacillin",[7]; ATCC 700789,>64 µg/mL
same,"MRC of Of1, amoxicillin/clavulanate",[7]; ATCC 700789 (VISA),4 µg/mL
same,"MRC of Of1, amoxicillin/clavulanate",MRSA ATCC BAA-1683,4 µg/mL
same,"MRC of Of1, oxacillin",MRSA ATCC BAA-1683; 32 μg/mL highest concentration tested,>32 µg/mL
same,potentiation of β-lactam antibiotics in MSSA,[8],does not show any significant potentiation effect
same,cytotoxic effect against HepG2 cells,HepG2 cells,no observable cytotoxic effect
same,GI50,[9],~8.9 µg/mL
same,fold potentiation of methicillin,"MRSA ATCC BAA-44 [1]; 20 μM (ca. 10 μg/mL) Of1, MRSA BAA-44",16 fold
same,fold potentiation of all β-lactam antibiotics,"MRSA ATCC BAA-44 [1]; 20 μM Of1, MRSA BAA-44",8-128 fold
same,fold potentiation of meropenem,"MRSA ATCC BAA-44 [1]; 20 μM Of1, MRSA BAA-44",16 fold
same,MIC of methicillin in media supplemented with 20 μM alkaloid,"MRSA ATCC BAA-44 [1]; MRSA ATCC BAA-44, methicillin MIC alone 128",8 µg/mL
same,"MRC of Of1, amoxicillin/clavulanate",MRSA ATCC 33592 [4]; ATCC 33592,4 µg/mL
same,"MRC of Of1, cefazolin",MRSA ATCC 33592 [4]; ATCC 33592,4 µg/mL
same,"MRC of Of1, oxacillin","MRSA ATCC 33592 [4]; ATCC 33592, oxacillin at highest sensitive concentration",4 µg/mL
same,"MRC of Of1, oxacillin","MRSA ATCC BAA-44 [5]; ATCC BAA-44, oxacillin at highest sensitive concentration",2 µg/mL
same,MIC,MRSA ATCC BAA-44 [3],> 128 µg/mL
same,MIC,MRSA ATCC BAA-44 [3]; [10],> 128 µg/mL
CC1=C(C(=O)O)N2C(=O)[C@@H](NC(=O)[C@H](N)c3ccccc3)[C@H]2SC1 [cephalexin],fold of potentiation,MRSA ATCC BAA-44 [1]; MRSA ATCC BAA-44,16
same,MIC (+Of1),MRSA ATCC BAA-44 [1]; MRSA ATCC BAA-44,16 µg/mL
same,MIC,MRSA ATCC BAA-44 [3]; [10],256 µg/mL
amoxicillin/clavulanate,fold of potentiation,MRSA ATCC BAA-44 [1]; MRSA ATCC BAA-44,8
same,MIC (+Of1),MRSA ATCC BAA-44 [1]; MRSA ATCC BAA-44,4/2
same,MIC,MRSA ATCC BAA-44 [3],32/16
